For this assay, the target named is Cathepsin D (Homo sapiens, UniProt P07339). Kind of assay: High Through-Put Fluorescence Assay. Particulars: pH 3.7. The text has this:
A fluorometric high through-put assay for inhibitor towards human liver cathepsin D from Calbiochem.
Chain of Cathepsin D (P07339 65-162 limits assumed): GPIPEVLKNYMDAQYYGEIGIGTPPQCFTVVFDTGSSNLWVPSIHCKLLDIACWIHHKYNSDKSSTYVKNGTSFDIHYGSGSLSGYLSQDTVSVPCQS
Chain of Cathepsin D (P07339 169-412 limits assumed): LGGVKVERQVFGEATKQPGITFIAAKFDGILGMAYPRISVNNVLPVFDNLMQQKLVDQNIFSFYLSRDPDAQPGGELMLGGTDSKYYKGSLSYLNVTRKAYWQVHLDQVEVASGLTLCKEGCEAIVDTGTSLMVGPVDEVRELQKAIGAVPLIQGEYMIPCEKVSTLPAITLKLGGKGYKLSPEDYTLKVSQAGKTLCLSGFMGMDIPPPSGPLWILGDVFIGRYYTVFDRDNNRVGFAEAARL
The compound `O=C(COc1ccc(Cl)c(Cl)c1)N[C@@H](c1ccccc1)C(O)CN(CCc1ccc(Cl)cc1Cl)C(=O)CCN1C(=O)c2ccccc2C1=O` (stereo partly specified) [FHO] came in with a half-maximal inhibitory concentration (IC50) of 18 nM and a Ki of 14 nM.
The compound `O=C(CCn1c(=O)oc2ccccc21)N[C@@H](c1ccccc1)C(O)CN(CCc1ccc(Cl)cc1Cl)C(=O)CCN1C(=O)c2ccccc2C1=O` (stereo partly specified) [FHA] registered a Ki of 231 nM.
Regarding `O=C(COc1cc(Cl)c(Cl)cc1Cl)N[C@@H](c1ccccc1)C(O)CN(CCc1ccc2c(c1)OCO2)C(=O)CCN1C(=O)c2ccccc2C1=O` (stereo partly specified) [EHD], the Ki is 73 nM.
For the compound `O=C(COc1ccc(Cl)c(Cl)c1)N[C@@H](c1ccccc1)[C@H](O)CN(CCc1ccc2c(c1)OCO2)C(=O)CCN1C(=O)c2ccccc2C1=O` [(R)-EHO], the half-maximal inhibitory concentration (IC50) is greater than 5000 nM.
`CCCCCCC(=O)N(CCc1cccc(OC)c1)CC(O)[C@@H](NC(=O)Cn1c(O)csc1=S)c1ccccc1` (stereo partly specified) [FDB] registered a Ki of 595 nM.
`O=C(COc1cccc(Cl)c1)N[C@@H](c1ccccc1)C(O)CN(CCc1ccc2c(c1)OCO2)C(=O)CCN1C(=O)c2ccccc2C1=O` (stereo partly specified) [EHR]: the concentration for half-maximal inhibition (IC50) came to 20 nM and affinity was put at a Ki of 15 nM.
Turning to `O=C(CCn1c(=O)oc2ccccc21)N[C@@H](c1ccccc1)C(O)CN(CCc1ccc2c(c1)OCO2)C(=O)CCc1ccc(Cl)c(Cl)c1` (stereo partly specified) [EFA], the affinity corresponds to a Ki of 171 nM.
On the same count and under the same terms, the same measure for `COc1ccc(C(=O)N[C@@H](c2ccccc2)C(O)CN(CCc2ccc3c(c2)OCO3)C(=O)CCN2C(=O)c3ccccc3C2=O)c(Cl)c1OC` (stereo partly specified) [EHJ]: 111 nM.
In turn, `COc1cc(Br)c(C(=O)N[C@@H](c2ccccc2)C(O)CN(CCc2ccc3c(c2)OCO3)C(=O)CCN2C(=O)c3ccccc3C2=O)cc1OC` (stereo partly specified) [EHS] showed an IC50 of 64 nM and an inhibition constant (Ki) of 59 nM.
Regarding `O=C(CCn1c(=O)oc2ccccc21)N[C@@H](c1ccccc1)C(O)CN(CCc1ccc2c(c1)OCO2)C(=O)CCN1C(=O)c2ccccc2C1=O` (stereo partly specified) [EHA], the affinity corresponds to a Ki of 131 nM.
In the case of `Cc1ccc(CCN(CC(O)[C@@H](NC(=O)COc2cc(Cl)c(Cl)cc2Cl)c2ccccc2)C(=O)CCN2C(=O)c3ccccc3C2=O)cc1` (stereo partly specified) [UHD], the IC50 worked out at 229 nM and the Ki worked out at 224 nM.
Take `COc1cccc(CCN(CC(O)[C@@H](NC(=O)Cn2c(O)csc2=S)c2ccccc2)C(=O)NC2CCCCC2)c1` (stereo partly specified) [FBB]: affinity was put at a Ki of 356 nM.
The same measure, in the same setting: the same measure for `O=C(COc1cc(Cl)c(Cl)cc1Cl)N[C@@H](c1ccccc1)[C@H](O)CN(CCc1ccc2c(c1)OCO2)C(=O)CCN1C(=O)c2ccccc2C1=O` [(R)-EHD]: greater than 5000 nM.
`O=C(COc1ccc(Cl)cc1Cl)N[C@@H](c1ccccc1)C(O)CN(CCc1ccc2c(c1)OCO2)C(=O)CCN1C(=O)c2ccccc2C1=O` (stereo partly specified) [EHM] returned an IC50 of 14 nM and an inhibitory constant (Ki) of 9 nM.
Taken in the same sequence, the figures for `O=C(COc1ccc(Cl)c(Cl)c1)N[C@@H](c1ccccc1)C(O)CN(CCc1ccc2c(c1)OCO2)C(=O)CCN1C(=O)c2ccccc2C1=O` (stereo partly specified) [EHO] were 19 nM and 15 nM.

The values are drawn from BindingDB's records for doi:10.1016/s1074-5521(97)90073-9 (University of California Berkeley, 1997).
